Laboratory results as given in PubChem BioAssay AID1259408 (Genetic Toxicology Data Bank (GENE-TOX), 2018).
Active and inactive are the calls of the source. How the calls were made is not given here.

Tested on: GENE-TOX genotoxicity assays, various organisms and cells
Test: GENE-TOX mutagenicity studies
Settings: for call: Assay Type: In vivo carcinogenicity studies
[1] = Species/Cell Type: Bacillus subtilis (H17 vs M45), Assay Type: Rec-assay, spot test, DNA effects (bacterial DNA repair), Assay Code: REW+, Evaluation Type: Evaluation A (Pre-1980)
[2] = Species/Cell Type: Escherichia coli polA (W3119 vs P3478), Assay Type: Rec-assay, DNA effects (bacterial DNA repair), Assay Code: RE1+, Evaluation Type: Evaluation A (Pre-1980)
[3] = Species/Cell Type: Saccharomyces cerevisiae, Assay Type: Mitotic recombination or gene conversion, Assay Code: YEH+, Evaluation Type: Evaluation A (Pre-1980)
[4] = Species/Cell Type: Salmonella typhimurium (one or more of the five standard strains: TA98, TA100, TA1535, TA1537, and TA1538), Assay Type: Histidine reverse gene mutation, Ames assay, Assay Code: SAL+, Evaluation Type: Evaluation A (Pre-1980)
[5] = Species/Cell Type: Syrian hamster embryo (SHE) cells, Assay Type: Cell transformation, clonal assay, Assay Code: CTC+, Evaluation Type: Evaluation A (Pre-1980)
[6] = Species/Cell Type: Salmonella typhimurium (one or more of the five standard strains: TA98, TA100, TA1535, TA1537, and TA1538), Assay Type: Histidine reverse gene mutation, Ames assay, Assay Code: SALT, Evaluation Type: Evaluation A (Pre-1980)
[7] = Species/Cell Type: Mammalian polychromatic erythrocytes, Assay Type: Micronucleus test, chromosome aberrations, Assay Code: MNT-, Evaluation Type: Evaluation B (Post-1980)

**Q.** Which results are given for `O=CNc1nc(-c2ccc([N+](=O)[O-])o2)cs1`?
**A.** mutagenic call [1]: active; positive; mutagenic call (Species/Cell Type: Escherichia coli WP2, Assay Type: Tryptophan reverse gene mutation, Assay Code: WP2+, Evaluation Type: Evaluation A (Pre-1980)): active; positive; mutagenic call (Species/Cell Type: Escherichia coli WP2 UVRA, Assay Type: Tryptophan reverse gene mutation, Assay Code: WPU+D, Dose Response: With dose response, Evaluation Type: Evaluation A (Pre-1980)): active; positive; mutagenic call [2]: active; positive; mutagenic call (Species/Cell Type: Fischer rat embryo (RLV/1706) cells, Assay Type: Cell transformation, viral enhanced, Assay Code: CTR+, Evaluation Type: Evaluation A (Pre-1980)): active; positive; mutagenic call (Species/Cell Type: Mouse, Sex: Male, Assay Type: Sperm morphology, Assay Code: SPIT, Evaluation Type: Evaluation A (Pre-1980)): no conclusion; mutagenic call (Species/Cell Type: Neurospora crassa, Assay Type: Forward gene mutation, Assay Code: NEF+, Evaluation Type: Evaluation A (Pre-1980)): active; positive; mutagenic call (Species/Cell Type: Neurospora crassa, Assay Type: Reverse gene mutation, Assay Code: NER+, Evaluation Type: Evaluation A (Pre-1980)): active; positive; call (Species/Cell Type: Nonhuman, Assay Code: CCG+, Evaluation Type: Evaluation A (Pre-1980)): active; positive; mutagenic call (Species/Cell Type: Nonhuman, Assay Type: Sister-chromatid exchange (SCE) in vitro, Assay Code: SC2+D, Dose Response: With dose response, Evaluation Type: Evaluation B (Post-1980)): active; positive; mutagenic call (Species/Cell Type: Saccharomyces cerevisiae, Assay Type: Mitotic recombination or gene conversion, Assay Code: YEC+, Evaluation Type: Evaluation A (Pre-1980)): active; positive; mutagenic call [3]: active; positive; mutagenic call [4]: active; positive; mutagenic call (Species/Cell Type: Salmonella typhimurium and Saccharomyces cerevisiae, Assay Type: Forward and reverse gene mutation, mitotic recombination and gene conversion, DNA effects, body fluid assay, Assay Code: BFG+, Evaluation Type: Evaluation A (Pre-1980)): active; positive; mutagenic call (Species/Cell Type: Salmonella typhimurium, Saccharomyces cerevisiae, Assay Type: Forward and reverse gene mutation, mitotic recombination and gene conversion, DNA effects, host-mediated assay, Assay Code: HM3+, Evaluation Type: Evaluation A (Pre-1980)): active; positive; mutagenic call [5]: active; positive

**Q.** How did the mutagenic call (Species/Cell Type: Mouse prostate cells, Assay Type: Cell transformation, Assay Code: CTM+, Evaluation Type: Evaluation A (Pre-1980)) turn out when `Cc1ccc2cc3c(cc(O)c4ccccc43)c3c2c1CC3` was run?
**A.** Its mutagenic call is “active; positive”.

**Q.** For `CC(C)(C)Br`, which mutagenic call (Species/Cell Type: Escherichia coli polA (W3119 vs P3478), Assay Type: Rec-assay, DNA effects (bacterial DNA repair), Assay Code: RE1-, Evaluation Type: Evaluation A (Pre-1980)) is on record?
**A.** Its mutagenic call is “inactive; negative”.

**Q.** Which results are given for `CN1CCC[C@H]1c1cccnc1`?
**A.** mutagenic call (Species/Cell Type: Neurospora crassa, Assay Type: Aneuploidy, chromosome aberrations, Assay Code: NEN-, Evaluation Type: Evaluation A (Pre-1980)): inactive; negative; mutagenic call (Species/Cell Type: Nonhuman, Assay Type: Sister-chromatid exchange (SCE) in vitro, Assay Code: SC2+, Evaluation Type: Evaluation B (Post-1980)): active; positive; mutagenic call (Species/Cell Type: Salmonella typhimurium (one or more of the five standard strains: TA98, TA100, TA1535, TA1537, and TA1538), Assay Type: Histidine reverse gene mutation, Ames assay, Assay Code: SAL-, Evaluation Type: Evaluation A (Pre-1980)): inactive; negative

**Q.** `NC[C@H](O)CCl` was tested. Which mutagenic call (Species/Cell Type: Rat, Sex: Male, Assay Type: Sperm morphology, Assay Code: SPA+, Evaluation Type: Evaluation A (Pre-1980)) did it give?
**A.** Its mutagenic call is “active; positive”.

**Q.** And the mutagenic call (Species/Cell Type: Rodents, Sex: Male, Assay Type: Dominant lethal test, Assay Code: DLT-, Evaluation Type: Evaluation A (Pre-1980))?
**A.** Its mutagenic call is “inactive; negative”.

**Q.** For `Clc1ccc(C2CO2)cc1` (stereo not drawn), which mutagenic call [6] is on record?
**A.** Its mutagenic call is “no conclusion”.

**Q.** With `Cc1cc2c(ccc3ccccc32)c2c1C(=O)CC2` as the molecule, how does the mutagenic call [6] read?
**A.** Its mutagenic call is “no conclusion”.

**Q.** With `O=C1OC(O)C(C(Cl)Cl)=C1Cl` (stereo not drawn) as the molecule, how does the mutagenic call [7] read?
**A.** The mutagenic call was “inactive; negative”.

**Q.** With `CCCCCCO` as the molecule, how does the mutagenic call (Species/Cell Type: Nonhuman, Assay Type: Sister-chromatid exchange (SCE) in vivo, Assay Code: SC3T, Evaluation Type: Evaluation B (Post-1980)) read?
**A.** The mutagenic call was “no conclusion”.

**Q.** For `CC1CN(N=O)CC(C)O1` (stereo not drawn), which mutagenic call (Species/Cell Type: Salmonella typhimurium (one or more of the five standard strains: TA98, TA100, TA1535, TA1537, and TA1538), Assay Type: Histidine reverse gene mutation, Ames assay, Assay Code: SAL+*, Activation: With metabolic activation, Evaluation Type: Evaluation A (Pre-1980)) is on record?
**A.** The mutagenic call was “active; positive”.

**Q.** Which results are given for `[Se]`?
**A.** mutagenic call (Species/Cell Type: Human lymphocytes, Assay Type: Sister-chromatid exchange (SCE) in vitro, Assay Code: SCL+D, Dose Response: With dose response, Evaluation Type: Evaluation B (Post-1980)): active; positive; mutagenic call (Species/Cell Type: Human, Assay Type: Sister-chromatid exchange (SCE) in vitro, Assay Code: SC1+D, Dose Response: With dose response, Evaluation Type: Evaluation B (Post-1980)): active; positive

**Q.** What does the source list for `ClCc1ccccc1`?
**A.** mutagenic call [1]: active; positive; mutagenic call (Species/Cell Type: Chinese hamster ovary (CHO) cells, Assay Type: Forward gene mutation at the HPRT locus, Assay Code: CHOT, Evaluation Type: Evaluation B (Post-1980)): no conclusion; mutagenic call (Species/Cell Type: Escherichia coli polA (W3110 vs P3478), Assay Type: Rec-assay, DNA effects (bacterial DNA repair), Assay Code: RE2+, Evaluation Type: Evaluation A (Pre-1980)): active; positive; mutagenic call [2]: active; positive; mutagenic call (Species/Cell Type: Human diploid fibroblasts, Assay Type: Unscheduled DNA synthesis (UDS) in vitro, DNA effects, Assay Code: UDH+, Evaluation Type: Evaluation A (Pre-1980)): active; positive; mutagenic call (Species/Cell Type: Human lymphocytes, Assay Type: Sister-chromatid exchange (SCE) in vitro, Assay Code: SCL+, Evaluation Type: Evaluation B (Post-1980)): active; positive; mutagenic call (Species/Cell Type: Human, Assay Type: Sister-chromatid exchange (SCE) in vitro, Assay Code: SC1+, Evaluation Type: Evaluation B (Post-1980)): active; positive; mutagenic call [7]: inactive; negative; call (Species/Cell Type: Nonhuman, Assay Code: CCG+L, Evaluation Type: Evaluation A (Pre-1980)): active; positive; mutagenic call [3]: active; positive; mutagenic call [4]: active; positive; mutagenic call (Species/Cell Type: Salmonella typhimurium, Assay Type: Forward and reverse gene mutation, host-mediated assay, Assay Code: HMA-, Evaluation Type: Evaluation A (Pre-1980)): inactive; negative; mutagenic call [5]: active; positive

**Q.** For `CCNP(=O)(N1CC1)N1CC1`, which mutagenic call (Species/Cell Type: Nonhuman bone marrow, Assay Type: Chromosome aberrations, in vivo, Assay Code: CY#+, Evaluation Type: Evaluation A (Pre-1980)) is on record?
**A.** Its mutagenic call is “active; positive”.

**Q.** What about the mutagenic call (Species/Cell Type: Nonhuman, Assay Type: Chromosome aberrations in vitro, Assay Code: CY&+, Evaluation Type: Evaluation A (Pre-1980)) of the same molecule?
**A.** The mutagenic call was “active; positive”.

**Q.** And the mutagenic call (Species/Cell Type: Schizosaccharomyces pombe, Assay Type: Reverse gene mutation, Assay Code: YEZ+, Evaluation Type: Evaluation A (Pre-1980))?
**A.** The mutagenic call was “active; positive”.

**Q.** How did the mutagenic call (Species/Cell Type: Drosophila melanogaster, Assay Type: Sex-linked recessive lethal gene mutation, Assay Code: SRLT, Evaluation Type: Evaluation A (Pre-1980)) turn out when `COC(=O)/C=C(\C)CCCC(C)(Cl)CCCC(C)(C)Cl` (stereo not drawn) was run?
**A.** Its mutagenic call is “no conclusion”.

**Q.** How did the mutagenic call (Species/Cell Type: Escherichia coli polA (W3119 vs P3478), Assay Type: Rec-assay, DNA effects (bacterial DNA repair), Assay Code: RE1T, Evaluation Type: Evaluation A (Pre-1980)) turn out when `CC(C)C(N)C(=O)O` (stereo not drawn) was run?
**A.** Its mutagenic call is “no conclusion”.
